{"source": "patent US10935560B2", "about": "“Method and kit for identifying lupus anticoagulant (LA) associated with antiphospholipid syndrome” (Instrumentation Laboratory Company, priority 2016, dated 2021)", "key": {"[1]": {"tested_on": "LA positive plasma sample", "experiment": "dRVVT Screen / dRVVT Confirm test, 1:1 mixing study", "format": "biochemical, human", "settings": "LA positive sample", "text": "(§1) The results of the LA screening assays are expressed by Screen Ratio (Rs), an assay done in the presence of low levels of phospholipid, Confirm Ratio (Re), an assay done in the presence of elevated levels of phospholipid, Screen-to-Confirm Ratio (R) and Normalized Screen-to-Confirm Ratio (NR) defined as follows: […]\n(§2) For each of the assays above, irrespective of the clotting inhibitor used in the assay, the measured screen assay clotting time of a patient sample is compared to the measured screen assay clotting time of normal platelet poor plasma and expressed as a ratio (Rs). Additionally, the measured confirm assay clotting time of a patient sample is compared to the measured confirm assay clotting time of normal platelet poor plasma and expressed as a ratio (Rc). A normalized ratio (NR) is expressed as Rs/Rc. The NR is compared to a cutoff ratio established from normal, healthy subjects."}, "[2]": {"tested_on": "normal pooled plasma (NPP)", "experiment": "dRVVT Screen / dRVVT Confirm test, 1:1 mixing study", "format": "biochemical, human", "settings": "500 ng/ml argatroban (1.06 in the absence of argatroban)", "text": "as §1, §2"}}}
{"compound": "CC1CNc2c(cccc2S(=O)(=O)N[C@@H](CCCNC(=N)N)C(=O)N2CC[C@@H](C)C[C@@H]2C(=O)O)C1", "note": "(stereo partly drawn) [argatroban]", "values": [{"measurement": "Normalized ratio of dRVVT Assay", "setting": "[1]; 500 ng/ml argatroban (from 1.34)", "result": 1.57}, {"measurement": "Change of Screen-to-Confirm Ratio of dRVVT Assay", "setting": "[1]; argatroban", "result": "didn't change"}, {"measurement": "Screen-to-Confirm Ratio of dRVVT Assay", "setting": "[2]", "result": 0.9}]}
